The conditions of series [1]: Log P of the amino acid as quoted in the discussion; source and method not given; cited from earlier work. The text has this: The predicted information from HeliQuest referred to the design of analogues (Figure 2). The first modification step was designed to increase hydrophobic characteristics and decrease helicity. […] The ...
The subject of a further series is horse erythrocytes. In words: Haemolysis activity. It counts as cell-based. Conditions: concentration causing 50% haemolysis; 4% (v/v) horse red blood cells in PBS, peptide 128 to 1 µM, 37 °C 2 h, OD 570 nm, 1% Triton X-100 positive control, three separate assays. The protocol:
To start, fresh defibrinated horse blood (TCS Biosciences Ltd., Buckingham, UK) was washed with PBS solution to obtain a clear supernatant. Then, a 4% (v/v) suspension of red blood cells was made in PBS. After this, 100 µL of the peptide solutions were incubated with 100 µL of the suspension of red blood cells in 2 mL centrifuge tubes at 37 °C for 2 h. The ultimate concentration of peptides ranged from 128 to 1 µM obtained by a 2-fold dilution. Also, two other groups were set simultaneously, including a positive control group of 1% Triton X-100 and a blank control group of phosphate-buffered saline (PBS). After incubation and centrifugation at 900× g for 10 min, a volume of 100 µL of the resulting supernatant from each specimen was carefully transferred to individual wells of the 96-well plate. Subsequently, the OD values were analysed using a Synergy HT plate reader (BioTek, USA) at a wavelength of 570 nm using the following equation:(2) Haemolysis Activity %=[(As−A0)/(Ap−A0)]×100% where As is the absorbance value of the supernatant of the peptide group, A0 is the average absorbance value of the blank control, and Ap is the average absorbance value of the positive control. The data were obtained from three separate assays.

Series [2] concerns P. aeruginosa ATCC CRM 9027. It is filed as cell-based, Pseudomonas aeruginosa. The text has this: (§1) The anti-planktonic microorganism efficacy of the peptides was investigated via minimal bacterial inhibitory concentration (MIC) and minimal bactericidal concentration (MBC) assays. Eight types of microorganisms, including Gram-positive bacteria, Staphylococcus aureus (ATCC CRM 6538), Methicillin-resistant Staphylococcus aureus (NCTC 12493), and Enterococcus faecium (NCTC 12697), Gram-negative bacteria, Escherichia coli (ATCC CRM 8739, ATCC BAA 2340, ATCC 13846, ATCC BAA 2469, and ATCC BAA 2471), Klebsiella pneumoniae (ATCC 43816), Pseudomonas aeruginosa (ATCC CRM 9027) and Acinetobacter baumannii (ATCC BAA 747) and a yeast, Candida albicans (ATCC CRM 10231) were utilized to test the antimicrobial activity of peptides.
(§2) For the MIC assay, microorganisms were inoculated with peptides in a 96-well plate. Nutrient broth (NB) was applied for MRSA, E. coli, K. pneumoniae, and P. aeruginosa, tryptic soy broth (TSB) was applied for S. aureus, E. faecium, and A. baumannii, and yeast extract peptone dextrose broth (YPD-B) was used for C. albicans. The microorganisms were cultured (bacteria: 37 °C; yeast: 26 °C) overnight at 120 rpm and subcultured to achieve the logarithmic growth stage (5 × 10^5 CFU/mL), as confirmed by viable cell counts. After that, 99 µL of the subculture and 1 µL of the peptide were added to the 96-well plate. The final concentration of peptides ranged from 128 to 1 µmol/L (µM) using a 2-fold dilution. In addition, four other groups were established simultaneously at the commencement of the test: a growth control group, a vehicle control group (Dimethyl Sulphoxide, DMSO), a positive control group utilizing Norfloxacin at a concentration of 2 mg/mL for bacteria, and Amphotericin B. at a concentration of 1 mg/mL for yeast, and a blank control group (sterile NB/TSB/YPD-B). The MIC values were measured after overnight incubation at 37/26 °C. The optical density (OD) values were analysed at 550 nm using a Synergy HT plate reader (BioTek, Washington, USA), and were calculated using the following equation:(1) Cell Viability %=[(As−A0)/(Ag−A0)]×100% where As is the absorbance value of the sample group, A0 is the average of the absorbance values of the blank control, and Ag is the average of the absorbance values of the growth control. For the MBC assay, 10 µL of the inhibited cultures on the 96-well plate were transferred onto a corresponding medium agar plate and incubated overnight at 37/26 °C to measure MBC values. The results were obtained from three independent assays.

The next series concerns S. aureus ATCC CRM 6538. It is filed as cell-based, Staphylococcus aureus.
Text: as §1, §2

Series [3] relates to C. albicans ATCC CRM 10231. It is filed as cell-based, Candida albicans. Conditions: ATCC CRM 10231.
Text: as §1, §2

Another series has as its system MRSA NCTC 12493. It counts as cell-based, Methicillin-resistant Staphylococcus aureus.
Text: as §1, §2

Another series relates to E. faecalis NCTC 12697. It is filed as cell-based.
The next series deals with E. coli NCTC 13846. It counts as cell-based, Escherichia coli.
Text: as §1, §2

For a further series, the system named is E. coli ATCC BAA 2471. It counts as cell-based, Escherichia coli. The following applies: NDM-1 strain, overnight 37 °C, three independent assays; for MIC: NB, 5 × 10^5 CFU/mL, OD 550 nm; for MBC: agar plate.
Text: as §1, §2

The test system of a further series is E. coli ATCC BAA 2340. It counts as cell-based, Escherichia coli. The following applies: KPC strain, overnight 37 °C, three independent assays; for MIC: NB, 5 × 10^5 CFU/mL, OD 550 nm; for MBC: agar plate.
Text: as §1, §2

The test system of the next series is E. coli ATCC BAA 2469. It counts as cell-based, Escherichia coli. Conditions: NDM-1 strain, overnight 37 °C, three independent assays; for MIC: NB, 5 × 10^5 CFU/mL, OD 550 nm; for MBC: agar plate.
Text: as §1, §2

Another series concerns E. coli ATCC CRM 8739. It counts as cell-based, Escherichia coli.
Text: as §1, §2

In the next series the test system is K. pneumoniae ATCC 43816. It is filed as cell-based, Klebsiella pneumoniae.
Text: as §1, §2

The test system of series [4] is A. baumannii ATCC BAA 747. It counts as cell-based, Acinetobacter baumannii.
Text: as §1, §2

Ends that are not written are not given here.

In general, Log P refers to a log measure of how a compound divides between an organic and an aqueous phase. In general, MIC refers to the lowest concentration found to suppress growth.

On to `C[C@H](N)C(=O)O` [Alanine], for which the “Log P” value in series [1] was 3.54.

Turning to `NC(=O)CC[C@H](N)C(=O)O` [Glutamine], the “Log P” value in [1] was 3.19.

As for `NCC(=O)O` [Glycine], in series [1], the “Log P” value is listed as 3.20.

As to `CC(C)[C@H](N)C(=O)O` [Valine], the “Log P” value in series [1] was 4.42.

Consider `N[C@@H](CO)C(=O)O` [serine], for which the “Log P” value in series [1] is 2.66.

Regarding “ALWKKILKNAGKAVLNEINQIVQ-NH2 [Peptide 14V5K]”, the time to eradicate bacteria was less than 10 min. In addition, in the series with horse erythrocytes, the HC50 came to 256.00. Further, in [2], the MBC stood at 8 µM and the MIC came to 8 µM. For the same compound, in the series on S. aureus ATCC CRM 6538, the MBC was determined as 4 µM and the MIC turned out to be 4 µM. In [3], the MBC worked out at 8 µM and the minimum inhibitory concentration (MIC) is 8 µM. Further, in the series on MRSA NCTC 12493, the MBC worked out at 4 µM and the MIC is 4 µM. In addition, in the series with E. faecalis NCTC 12697, the MBC is more than 128 µM and the MIC was more than 128 µM. Further, in the series on E. coli NCTC 13846, the MBC was 4 µM and the MIC was found to be 4 µM. Moreover, in the series with E. coli ATCC BAA 2471, the MIC was 1 µM and the MBC amounted to 2 µM. In addition, in the series on E. coli ATCC BAA 2340, the MIC worked out at 2 µM and the MBC stood at 2 µM. For the same compound, in the series on E. coli ATCC BAA 2469, the MIC came out at 1 µM and the MBC amounted to 2 µM. In the series on E. coli ATCC CRM 8739, the MBC was found to be 2 µM and the MIC was 2 µM. Besides, in the series with K. pneumoniae ATCC 43816, the MBC came out at 2 µM and the minimal inhibitory concentration (MIC) came to 2 µM. In series [4], the MBC amounted to 8 µM and the MIC is 8 µM.

With ALWKSILKNAGKAALNEINQIVQ-NH2 [SS1], in the series on horse erythrocytes, the HC50 was found to be 256.00 µM. For the same compound, the MBC in series [2] was 32 µM; in the series on S. aureus ATCC CRM 6538, 8 µM; in [3], more than 128 µM; in the series with MRSA NCTC 12493 it was more than 128 µM; against E. faecalis NCTC 12697, more than 128 µM; in the series with E. coli NCTC 13846 it was 8 µM. Further, the MBC in the series on E. coli ATCC BAA 2471 worked out at 8 µM; in the series with E. coli ATCC BAA 2340, 4 µM; with E. coli ATCC BAA 2469, 4 µM; with E. coli ATCC CRM 8739, 4 µM; in the series on K. pneumoniae ATCC 43816 it was 16 µM; in [4] it was 16 µM. Moreover, the MIC in [2] is 32 µM; with S. aureus ATCC CRM 6538, 8 µM; in series [3] it was more than 128 µM; in the series on MRSA NCTC 12493, more than 128 µM; against E. faecalis NCTC 12697, more than 128 µM; in the series with E. coli NCTC 13846, 8 µM. The MIC was determined as 8 µM with E. coli ATCC BAA 2471; 4 µM with E. coli ATCC BAA 2340; 4 µM in the series on E. coli ATCC BAA 2469; 2 µM in the series on E. coli ATCC CRM 8739; 16 µM in the series on K. pneumoniae ATCC 43816; 16 µM in [4].

As for “ALWKSILKNAGKAGLNEINQIVQ-NH2 [Peptide 14G]”, in the series with horse erythrocytes, the HC50 is on record as 256.00. The MBC is more than 128 µM in series [2]; more than 128 µM in the series on S. aureus ATCC CRM 6538; more than 128 µM in series [3]; more than 128 µM in the series on MRSA NCTC 12493; more than 128 µM with E. faecalis NCTC 12697; 16 µM in the series on E. coli ATCC CRM 8739. Further, the MBC (in the series with K. pneumoniae ATCC 43816; in [4]) was more than 128 µM each time. In addition, the MIC in [2] was 32 µM; in the series on S. aureus ATCC CRM 6538, more than 128 µM; in series [3], more than 128 µM; in the series on MRSA NCTC 12493, more than 128 µM; against E. faecalis NCTC 12697, more than 128 µM; in the series with E. coli ATCC CRM 8739, 16 µM. Moreover, the minimal inhibitory concentration (MIC) (with K. pneumoniae ATCC 43816; in [4]) was more than 128 µM in each case.

For “ALWKSILKNAGKALNEINQIVQ-NH2 [Peptide L14]”, the HC50 in the series with horse erythrocytes worked out at 256.00. For the same compound, the MBC in [2] was more than 128 µM; in the series on S. aureus ATCC CRM 6538 it was more than 128 µM; in series [3] it was more than 128 µM; with MRSA NCTC 12493 it was 32 µM; in the series with E. faecalis NCTC 12697 it was more than 128 µM; with E. coli ATCC CRM 8739, 4 µM. The values for the MBC (in the series with K. pneumoniae ATCC 43816; in series [4]) were 16 µM and more than 128 µM, respectively. For the same compound, the MIC is 16 µM in [2]; more than 128 µM with S. aureus ATCC CRM 6538; more than 128 µM in series [3]; 32 µM in the series with MRSA NCTC 12493; more than 128 µM against E. faecalis NCTC 12697; 4 µM in the series with E. coli ATCC CRM 8739. Moreover, the MIC in the series with K. pneumoniae ATCC 43816 is 16 µM; in series [4] it was 32 µM.

“ALWKSILKNAGKAVLNEINQIV-NH2 [Peptide 14VL23]”: the HC50 in the series with horse erythrocytes is listed as 256.00. Further, the MBC in [2] is more than 128 µM; in the series with S. aureus ATCC CRM 6538, more than 128 µM; in series [3], more than 128 µM; in the series with MRSA NCTC 12493, more than 128 µM; in the series on E. faecalis NCTC 12697, more than 128 µM; with E. coli ATCC CRM 8739, 16 µM. Also, the MBC in the series with K. pneumoniae ATCC 43816 was 4 µM; in [4], more than 128 µM. The minimal inhibitory concentration (MIC) is more than 128 µM in series [2]; more than 128 µM in the series with S. aureus ATCC CRM 6538; more than 128 µM in series [3]; more than 128 µM in the series on MRSA NCTC 12493; more than 128 µM in the series with E. faecalis NCTC 12697; 8 µM with E. coli ATCC CRM 8739. Further, the MIC with K. pneumoniae ATCC 43816 is 4 µM; in series [4] it was more than 128 µM.

“ALWKSILKNAGKAVLNEINQIVQ-NH2 [Peptide 14V]”: in the series with horse erythrocytes, the HC50 was 256.00. For the same compound, the MBC was more than 128 µM in series [2]; 4 µM in the series with S. aureus ATCC CRM 6538; more than 128 µM in [3]; 8 µM in the series on MRSA NCTC 12493; more than 128 µM against E. faecalis NCTC 12697; 2 µM with E. coli ATCC CRM 8739. For the same compound, the MBC with K. pneumoniae ATCC 43816 stood at 8 µM; in series [4], 4 µM. The MIC in series [2] is 16 µM; with S. aureus ATCC CRM 6538, 4 µM; in [3], more than 128 µM; in the series with MRSA NCTC 12493, 8 µM; against E. faecalis NCTC 12697, more than 128 µM; with E. coli ATCC CRM 8739 it was 2 µM. Also, the MIC in the series with K. pneumoniae ATCC 43816 amounted to 8 µM; in series [4] it was 4 µM.

The values are drawn from paper PMC10535717, “A Novel Antimicrobial Peptide, Dermaseptin-SS1, with Anti-Proliferative Activity, Isolated from the Skin Secretion of Phyllomedusa tarsius” (Molecules, 2023).
